Source: patent US12433861B2, “Compositions and methods for treating reperfusion injury or hemorrhage after recanalization therapy” (GNT Pharma Co., Ltd., priority 2020, dated 2025)
“Also recorded” adds a separate entry of the source.

Columns and labels:
[1] = system: ischemic stroke patients; settings: cited from earlier work
[2] = system: adult rats; assay: Abnormal behavior in adult rats after single dose; settings: for % of rats showing abnormal behavior: Abnormal body position lying on side / % of rats showing abnormal behavior: Ataxia / % of rats showing abnormal behavior: Clenched paws / % of rats showing abnormal behavior: Decreased activity / % of rats showing abnormal behavior: Increased salivation / % of rats showing abnormal behavior: Repetitive jaw chewing / Number of rats showing abnormal behavior: Abnormal body position lying on side / Number of rats showing abnormal behavior: Ataxia / Number of rats showing abnormal behavior: Clenched paws / Number of rats showing abnormal behavior: Decreased activity / Number of rats showing abnormal behavior: Increased salivation / Number of rats showing abnormal behavior: Repetitive jaw chewing: 8 rats
[3] = system: healthy volunteers; settings: cited from earlier work
[4] = system: acute ischemic stroke patients; settings: cited from earlier work
[5] = ischemic stroke patients, selfotel (n = 281)

For `O=C(O)[C@@H]1C[C@H](CP(=O)(O)O)CCN1` (racemic) [selfotel], the “adverse effects in stroke patients” value ([1]; 1 mg/kg) is given as “showed hallucinations, paranoia, agitation, confusion, and delirium”, the “% of subjects showing abnormal behavior: Agitation” value [1, 5] is given as 36% and the “% of subjects showing abnormal behavior: Confusion” value [1, 5] is given as 16%. For the same compound, the “% of subjects showing abnormal behavior: Hallucination” value [1, 5] was 21%, the “% of subjects showing abnormal behavior: Stupor” value [1, 5] was 4.3% and the “Number of subjects showing abnormal behavior: Agitation” value [1, 5] was 101. The “Number of subjects showing abnormal behavior: Confusion” value [1, 5] was 46, the “Number of subjects showing abnormal behavior: Hallucination” value [1, 5] was 59 and the “Number of subjects showing abnormal behavior: Stupor” value [1, 5] was 12. For the same compound, the “Subjects showing abnormal behavior: Delirium (yes/no)” value [1, 5] was “yes”, the “Subjects showing abnormal behavior: Paranoia (yes/no)” value [1, 5] was “yes” and the psychotic symptoms ([1]; some of 281 ischemic stroke patients) was “revealed psychotic symptoms such as hallucination, paranoia, and delirium”.
With `C[C@]12N[C@H](Cc3ccccc31)c1ccccc12` [MK-801] the “% of rats showing abnormal behavior: Abnormal body position lying on side” value ([2]; 1 mg/kg (IP), female) was 25%, the “% of rats showing abnormal behavior: Ataxia” value ([2]; 1 mg/kg (IP), female) was 75% and the “% of rats showing abnormal behavior: Clenched paws” value ([2]; 1 mg/kg (IP), female) was 88%. The “% of rats showing abnormal behavior: Decreased activity” value ([2]; 1 mg/kg (IP), female) was 100%, the “% of rats showing abnormal behavior: Increased salivation” value ([2]; 1 mg/kg (IP), female) was 25% and the “% of rats showing abnormal behavior: Repetitive jaw chewing” value ([2]; 1 mg/kg (IP), female) was 50%. For the same compound, the “Number of rats showing abnormal behavior: Abnormal body position lying on side” value ([2]; 1 mg/kg (IP), female) was 2, the “Number of rats showing abnormal behavior: Ataxia” value ([2]; 1 mg/kg (IP), female) was 6 and the “Number of rats showing abnormal behavior: Clenched paws” value ([2]; 1 mg/kg (IP), female) was 7. The “Number of rats showing abnormal behavior: Decreased activity” value ([2]; 1 mg/kg (IP), female) was 8, the “Number of rats showing abnormal behavior: Increased salivation” value ([2]; 1 mg/kg (IP), female) was 2 and the “Number of rats showing abnormal behavior: Repetitive jaw chewing” value ([2]; 1 mg/kg (IP), female) was 4. The “% of rats showing abnormal behavior: Abnormal body position lying on side” value ([2]; 10 mg/kg (IP), male) was 13%, the “% of rats showing abnormal behavior: Ataxia” value ([2]; 10 mg/kg (IP), male) was 38% and the “% of rats showing abnormal behavior: Clenched paws” value ([2]; 10 mg/kg (IP), male) was 50%. The “% of rats showing abnormal behavior: Decreased activity” value ([2]; 10 mg/kg (IP), male) was 100%, the “% of rats showing abnormal behavior: Increased salivation” value ([2]; 10 mg/kg (IP), male) was 50% and the “% of rats showing abnormal behavior: Repetitive jaw chewing” value ([2]; 10 mg/kg (IP), male) was 38%. For the same compound, the “Number of rats showing abnormal behavior: Abnormal body position lying on side” value ([2]; 10 mg/kg (IP), male) was 1, the “Number of rats showing abnormal behavior: Ataxia” value ([2]; 10 mg/kg (IP), male) was 3 and the “Number of rats showing abnormal behavior: Clenched paws” value ([2]; 10 mg/kg (IP), male) was 5. The “Number of rats showing abnormal behavior: Decreased activity” value ([2]; 10 mg/kg (IP), male) was 4, the “Number of rats showing abnormal behavior: Increased salivation” value ([2]; 10 mg/kg (IP), male) was 5 and the “Number of rats showing abnormal behavior: Repetitive jaw chewing” value ([2]; 10 mg/kg (IP), male) was 3. The abnormal behaviors ([2]; male and female rats, 1 or 10 mg/kg (IP)) was “produced abnormal behaviors including ataxia and decreased activity”.
In the case of `CCc1cccc(N(C)C(N)=Nc2cccc3ccccc23)c1` [aptiganel], the “Drug-induced side effect: Agitation” value ([3]; Phase 1, 94 healthy volunteers) is given as “yes”, the “Drug-induced side effect: Catatonia” value ([3]; Phase 1, 94 healthy volunteers) is given as “yes” and the “Drug-induced side effect: Hallucination” value ([3]; Phase 1, 94 healthy volunteers) is given as “yes”. For the same compound, the “Drug-induced side effect: Paranoia” value ([3]; Phase 1, 94 healthy volunteers) was “yes” and the “side effects / psychotic symptoms in healthy humans” value ([3]; healthy volunteers (phase 1 study for 94)) was “caused hallucinations, paranoia, catatonia, euphoria, disinhibition, and psychomotor retardation; also recorded: psychotic symptoms such as hallucinations, paranoia, and catatonia”.
For “rt-PA: recombinant tissue plasminogen activator, intravenous thrombolytic drug”, the “increase of intracranial hemorrhagic complication” value ([4]; intravenous administration, acute ischemic stroke) is given as about 6.4% and the cerebral arterial recanalization ([4]; intravenous, depending upon size and types of the occluded vessel) is given as 4-32%.
